Assay results as given in PMC8963254, “Effects of Lysine N-ζ-Methylation in Ultrashort Tetrabasic Lipopeptides (UTBLPs) on the Potentiation of Rifampicin, Novobiocin, and Niclosamide in Gram-Negative Bacteria” (Antibiotics, 2022).
Converted amounts (≈) assume the structure as drawn. Like-named read-outs stand apart in the source and are kept apart here. Non-standard residues stand in square brackets, D forms with d. Residues, ends and D or L forms follow the SMILES beside them. *: point of attachment. Lys(Me2) = CN(C)CCCC[C@H](N)C(=O)O; Octanoyl = CCCCCCCC(=O)*

What was measured:
K. pneumoniae 113250 [1] = test: microbe, parasite or virus in culture; type: cell-based, Klebsiella pneumoniae; conditions: 113250, 18 h
In short: (§1)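 MIC was determined by broth microdilution following CLSI guidelines. Serially varied compound concentrations were incubated with bacterial inoculum at 5 × 10^5 CFU/mL (final) for 18 h at 37 °C. Growth was scored as turbidity by absorbance at 590 nm.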

A. baumannii AB027 = type: cell-based, Acinetobacter baumannii; conditions: for MICUTBLP: UTBLP alone
Procedure: (§2) The synergy of the UTBLPs with various antibiotics was assessed using checkerboard assay as previously described. Briefly, the combination of antibiotic and OMP at varying concentrations were incubated with bacterial inoculum (5 × 10^5 CFU/mL final concentration) at 37 °C for 18 h. Growth in the form of turbidity was confirmed using an EMax Plus microplate reader (Molecular Devices, Union City, CA, USA) at 590 nm. Fractional inhibitory concentration index (FICI) was used to evaluate the interaction between the antibiotic and the OMP. FICI is the sum of the FIC of the antibiotic and the FIC of the OMP. The FIC value is calculated by dividing the MIC of the agents in combination by the MIC of the agent alone. FICI ≤ 0.5 is synergistic, 0.5 < x ≤ 4 is additive, and >4 is antagonistic.

A. baumannii ATCC 17978 = type: cell-based, Acinetobacter baumannii; conditions: for MICUTBLP: UTBLP alone
Procedure: as §2

A. baumannii 92247 = type: cell-based, Acinetobacter baumannii; conditions: for MICUTBLP: UTBLP alone
Procedure: as §2

E. faecium ATCC 27270 [2] = type: cell-based, Enterococcus faecium
Procedure: as §2

S. aureus ATCC 29213 = type: cell-based, Staphylococcus aureus
Procedure: as §2

MRSA ATCC 33592 = type: cell-based, Staphylococcus aureus
Procedure: as §2

E. cloacae 118564 = test: microbe, parasite or virus in culture; type: cell-based, Enterobacter cloacae; conditions: 118564, 18 h
In short: as §1

E. coli 94393 = type: cell-based, Escherichia coli; conditions: for MICUTBLP: UTBLP alone
In short: (§3)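 Values derive from a two-agent checkerboard with an 18 h, 37 °C incubation. FICI cut-offs: ≤0.5 synergy, 0.5–4 additive, >4 antagonism.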

E. coli ATCC 25922 = type: cell-based, Escherichia coli; conditions: for MICUTBLP: UTBLP alone
In short: as §3

K. pneumoniae 113250 [3] = type: cell-based, Klebsiella pneumoniae; conditions: for MICUTBLP: UTBLP alone
Procedure: as §2

E. faecium ATCC 27270 [4] = type: cell-based, Enterococcus faecium; conditions: ATCC 27270, 18 h
Procedure: The in vitro antibacterial activity of the UTBLPs was assessed against wild-type and clinically isolated bacterial strains. To obtain the MIC of the compounds, the microbroth dilution susceptibility assay was performed according to the Clinical and Laboratory Standards Institute (CLSI, Wayne, PA, USA) guidelines and as previously described. Briefly, the compounds at varying concentrations were incubated with bacterial inoculum (5 × 10^5 CFU/mL final concentration) at 37 °C for 18 h. Growth in the form of turbidity was confirmed using an EMax Plus microplate reader (Molecular Devices, San Jose, CA, USA) at 590 nm.

[5] = UTBLP in combination with novobiocin
[6] = UTBLP in combination with rifampicin
[7] = novobiocin in combination with the UTBLP
[8] = rifampicin in combination with the UTBLP
[9] = UTBLP in combination with chloramphenicol
[10] = UTBLP in combination with niclosamide
[11] = chloramphenicol in combination with the UTBLP
[12] = niclosamide in combination with the UTBLP
[13] = UTBLP alone, plate with chloramphenicol

- MIC (K. pneumoniae 113250 [1]): > 128 µg/mL
- MICUTBLP (A. baumannii AB027; plate with novobiocin): 128 µg/mL
- MICUTBLP (A. baumannii AB027; plate with rifampicin): 128 µg/mL
- MICUTBLP [MICcombo] (A. baumannii AB027; [5]): 4 µg/mL
- MICUTBLP [MICcombo] (A. baumannii AB027; [6]): 8 µg/mL
- MICantibiotic [MICcombo] (A. baumannii AB027; [7]): 0.5 µg/mL
- MICantibiotic [MICcombo] (A. baumannii AB027; [8]): 0.063 µg/mL
- MICUTBLP (A. baumannii ATCC 17978; plate with chloramphenicol): 128 µg/mL
- MICUTBLP (A. baumannii ATCC 17978; plate with niclosamide): 128 µg/mL
- MICUTBLP (A. baumannii ATCC 17978; plate with novobiocin): 128 µg/mL
- MICUTBLP (A. baumannii ATCC 17978; plate with rifampicin): 128 µg/mL
- MICUTBLP [MICcombo] (A. baumannii ATCC 17978; [9]): 0.25 µg/mL
- MICUTBLP [MICcombo] (A. baumannii ATCC 17978; [10]): 4 µg/mL
- MICUTBLP [MICcombo] (A. baumannii ATCC 17978; [5]): 4 µg/mL
- MICUTBLP [MICcombo] (A. baumannii ATCC 17978; [6]): 4 µg/mL
- MICantibiotic [MICcombo] (A. baumannii ATCC 17978; [11]): 64 µg/mL
- MICantibiotic [MICcombo] (A. baumannii ATCC 17978; [12]): 4 µg/mL
- MICantibiotic [MICcombo] (A. baumannii ATCC 17978; [7]): 0.5 µg/mL
- MICantibiotic [MICcombo] (A. baumannii ATCC 17978; [8]): 0.125 µg/mL
- MICUTBLP (A. baumannii 92247; plate with novobiocin): 32 µg/mL
- MICUTBLP (A. baumannii 92247; plate with rifampicin): 32 µg/mL
- MICUTBLP [MICcombo] (A. baumannii 92247; [5]): 1 µg/mL
- MICUTBLP [MICcombo] (A. baumannii 92247; [6]): 8 µg/mL
- MICantibiotic [MICcombo] (A. baumannii 92247; [7]): 0.25 µg/mL
- MICantibiotic [MICcombo] (A. baumannii 92247; [8]): 0.125 µg/mL
- MICUTBLP (E. faecium ATCC 27270 [2]; [13]): 128 µg/mL
- MICUTBLP [MICcombo] (E. faecium ATCC 27270 [2]; [9]): 0.25 µg/mL
- MICchloramphenicol [MICcombo] (E. faecium ATCC 27270 [2]; [11]): 4 µg/mL
- MICUTBLP (S. aureus ATCC 29213; [13]): > 128 µg/mL
- MICUTBLP [MICcombo] (S. aureus ATCC 29213; [9]): 0.25 µg/mL
- MICchloramphenicol [MICcombo] (S. aureus ATCC 29213; [11]): 8 µg/mL
- MICUTBLP (MRSA ATCC 33592; [13]): > 128 µg/mL
- MICUTBLP [MICcombo] (MRSA ATCC 33592; [9]): 0.25 µg/mL
- MICchloramphenicol [MICcombo] (MRSA ATCC 33592; [11]): 64 µg/mL
- MIC (E. cloacae 118564): > 128 µg/mL
- MICUTBLP (E. coli 94393; plate with novobiocin): 64 µg/mL
- MICUTBLP (E. coli 94393; plate with rifampicin): 64 µg/mL
- MICUTBLP [MICcombo] (E. coli 94393; [5]): 4 µg/mL
- MICUTBLP [MICcombo] (E. coli 94393; [6]): 8 µg/mL
- MICantibiotic [MICcombo] (E. coli 94393; [7]): 2 µg/mL
- MICantibiotic [MICcombo] (E. coli 94393; [8]): 0.5 µg/mL
- MICUTBLP (E. coli ATCC 25922; plate with chloramphenicol): 64 µg/mL
- MICUTBLP (E. coli ATCC 25922; plate with niclosamide): 64 µg/mL
- MICUTBLP (E. coli ATCC 25922; plate with novobiocin): 64 µg/mL
- MICUTBLP (E. coli ATCC 25922; plate with rifampicin): 64 µg/mL
- MICUTBLP [MICcombo] (E. coli ATCC 25922; [9]): 16 µg/mL
- MICUTBLP [MICcombo] (E. coli ATCC 25922; [10]): 4 µg/mL
- MICUTBLP [MICcombo] (E. coli ATCC 25922; [5]): 2 µg/mL
- MICUTBLP [MICcombo] (E. coli ATCC 25922; [6]): 8 µg/mL
- MICantibiotic [MICcombo] (E. coli ATCC 25922; [11]): 0.5 µg/mL
- MICantibiotic [MICcombo] (E. coli ATCC 25922; [12]): 1 µg/mL
- MICantibiotic [MICcombo] (E. coli ATCC 25922; [7]): 2 µg/mL
- MICantibiotic [MICcombo] (E. coli ATCC 25922; [8]): 0.125 µg/mL
- MICUTBLP (K. pneumoniae 113250 [3]; plate with novobiocin): > 128 µg/mL
- MICUTBLP (K. pneumoniae 113250 [3]; plate with rifampicin): > 128 µg/mL
- MICUTBLP [MICcombo] (K. pneumoniae 113250 [3]; [5]): 8 µg/mL
- MICUTBLP [MICcombo] (K. pneumoniae 113250 [3]; [6]): 16 µg/mL
- MICantibiotic [MICcombo] (K. pneumoniae 113250 [3]; [7]): 8 µg/mL
- MICantibiotic [MICcombo] (K. pneumoniae 113250 [3]; [8]): 2 µg/mL
- MIC (E. faecium ATCC 27270 [4]): 128 µg/mL (≈ 125 µM)
Structure (SMILES): CCCCCCCC(=O)NCCCC[C@H](NC(=O)CCCCCCC)C(=O)N[C@@H](CCCCN(C)C)C(=O)N[C@@H](CCCCN(C)C)C(=O)N[C@@H](CCCCN(C)C)C(=O)N[C@@H](CCCCN(C)C)C(N)=O [UTBLP 7] (Octanoyl-K(Octanoyl)[Lys(Me2)][Lys(Me2)][Lys(Me2)][Lys(Me2)]-NH2)
- Interpretation (A. baumannii AB027; UTBLP + novobiocin): Synergy (FICI ≤ 0.5 is synergistic)
- Interpretation (A. baumannii AB027; UTBLP + rifampicin): Synergy (FICI ≤ 0.5 is synergistic)
- Interpretation (A. baumannii ATCC 17978; UTBLP + chloramphenicol): Additive (0.5 < x ≤ 4 is additive)
- Interpretation (A. baumannii ATCC 17978; UTBLP + niclosamide): Synergy (FICI ≤ 0.5 is synergistic)
- Interpretation (A. baumannii ATCC 17978; UTBLP + novobiocin): Synergy (FICI ≤ 0.5 is synergistic)
- Interpretation (A. baumannii ATCC 17978; UTBLP + rifampicin): Synergy (FICI ≤ 0.5 is synergistic)
- Interpretation (A. baumannii 92247; UTBLP + novobiocin): Synergy (FICI ≤ 0.5 is synergistic)
- Interpretation (A. baumannii 92247; UTBLP + rifampicin): Synergy (FICI ≤ 0.5 is synergistic)
- Interpretation (E. faecium ATCC 27270 [2]; UTBLP + chloramphenicol): Additive (0.5 < x ≤ 4 is additive)
- Interpretation (MRSA ATCC 33592; UTBLP + chloramphenicol): Additive (0.5 < x ≤ 4 is additive)
- Interpretation (E. coli 94393; UTBLP + novobiocin): Synergy (FICI ≤ 0.5 is synergistic)
- Interpretation (E. coli 94393; UTBLP + rifampicin): Synergy (FICI ≤ 0.5 is synergistic)
- Interpretation (E. coli ATCC 25922; UTBLP + chloramphenicol): Synergy (FICI ≤ 0.5 is synergistic)
- Interpretation (E. coli ATCC 25922; UTBLP + niclosamide): Synergy (FICI ≤ 0.5 is synergistic)
- Interpretation (E. coli ATCC 25922; UTBLP + novobiocin): Synergy (FICI ≤ 0.5 is synergistic)
- Interpretation (E. coli ATCC 25922; UTBLP + rifampicin): Synergy (FICI ≤ 0.5 is synergistic)
- Interpretation (K. pneumoniae 113250 [3]; UTBLP + novobiocin): Synergy (FICI ≤ 0.5 is synergistic)
- Interpretation (K. pneumoniae 113250 [3]; UTBLP + rifampicin): Synergy (FICI ≤ 0.5 is synergistic)
